Source: PubChem BioAssay (NCI)
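Briefly, cells in 96-well plates were exposed to five compound concentrations for 48 h, and endpoints were estimated by linear interpolation. GI50 marks 50% less growth. TGI denotes the concentration required for complete inhibition of growth.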

How the values were obtained:
Assay in all cases: NCI tumour cell line growth inhibition, 48 h
RXF 393 renal = system: RXF 393 renal
TK-10 renal = system: TK-10 renal
SK-MEL-2 melanoma = system: SK-MEL-2 melanoma
HS 578T breast = system: HS 578T breast
SR leukemia = system: SR leukemia
SK-MEL-28 melanoma = system: SK-MEL-28 melanoma
NCI-H460 lung = system: NCI-H460 lung
SK-OV-3 ovarian = system: SK-OV-3 ovarian
HT29 colon = system: HT29 colon
A549 NSCLC = system: A549 NSCLC

Row | Structure (SMILES) | TGI (RXF 393 renal) | TGI (TK-10 renal) | TGI (SK-MEL-2 melanoma) | TGI (HS 578T breast) | TGI (SR leukemia) | TGI (SK-MEL-28 melanoma) | TGI (NCI-H460 lung) | TGI (SK-OV-3 ovarian) | TGI (HT29 colon) | TGI (A549 NSCLC) | GI50 (RXF 393 renal) | GI50 (TK-10 renal) | GI50 (SK-MEL-2 melanoma) | GI50 (HS 578T breast) | GI50 (SR leukemia) | GI50 (SK-MEL-28 melanoma) | GI50 (NCI-H460 lung) | GI50 (SK-OV-3 ovarian) | GI50 (HT29 colon) | GI50 (A549 NSCLC)
1 | O=C(CC(=O)c1ccccc1NC1=Cc2ccccc2C(=O)C1=O)C(=O)NC1=C(Cl)C(=O)c2ccccc2C1=O | 7.5 µM | 43.6 µM | 6.6 µM | 5.64 µM | 14.1 µM | 3.71 µM | 12.1 µM | > 83.8 µM | 26.1 µM | 16.5 µM | – | – | – | – | – | – | – | – | – | –
2 | CC(C)(CCC(C)(C)c1ccccc1)c1ccccc1 | 27.5 µM | 46.4 µM | 31.5 µM | 53.4 µM | 50 µM | 42.7 µM | 31.9 µM | 82.6 µM | 27.8 µM | > 100 µM | – | – | – | – | – | – | – | – | – | –
3 | CN(C)CCCC(=O)Nc1ccc(Cn2nnc3c2C(=O)c2nnn(Cc4ccc(NC(=O)CCCN(C)C)cc4)c2C3=O)cc1 | 21.6 µM | > 100 µM | 4.64 µM | 7.68 µM | 61.4 µM | 20.3 µM | 10.8 µM | 49 µM | 7.87 µM | 39.2 µM | 5 µM | > 100 µM | 2.17 µM | 2.93 µM | 3.36 µM | 4.55 µM | 2.82 µM | 20.9 µM | 3.22 µM | 16.8 µM
4 | CCOC(=O)c1cnc2c(cnn2CC)c1NN=C(C)C | 70 µM | > 100 µM | > 100 µM | 87.9 µM | > 100 µM | > 100 µM | > 100 µM | > 100 µM | > 100 µM | > 100 µM | 11.4 µM | 27.1 µM | 53.5 µM | 24.1 µM | 33.6 µM | > 100 µM | 57.5 µM | 55.7 µM | 23.3 µM | 40.1 µM
5 | O=C1C=C(Nc2nc(C(=O)O)cc(=O)[nH]2)c2ccccc2C1=O | > 100 µM | > 100 µM | > 100 µM | > 100 µM | > 100 µM | > 100 µM | > 100 µM | > 100 µM | > 100 µM | > 100 µM | – | – | – | – | – | – | – | – | – | –
6 | CC12CCC(O)CC1CCC1C2CCC2(C)C(C3=CC(=O)OC3)CCC12 (configuration not stated) | 42.5 µM | 66.4 µM | 29.8 µM | > 48.5 µM | > 100 µM | > 100 µM | > 100 µM | > 61.5 µM | > 100 µM | > 100 µM | 7.76 µM | 19.6 µM | 7.49 µM | 3.48 µM | 0.375 µM | 28.2 µM | 0.493 µM | 21.8 µM | > 100 µM | 21.8 µM
7 | Nc1nc(Nc2ccc3c(c2)CCC(N2CCCC2)CC3)nn1-c1cc2c(nn1)-c1ccccc1CCC2 (configuration not stated) | 1.87 µM | 2.61 µM | 2.53 µM | 3.66 µM | 2.37 µM | 3.01 µM | 2.63 µM | 2.22 µM | 2.6 µM | 2.92 µM | 0.631 µM | 1.14 µM | 1.04 µM | 1.08 µM | 0.42 µM | 1.61 µM | 1.08 µM | 0.895 µM | 0.667 µM | 1.32 µM
8 | COc1cccc2c1C(=O)c1c(O)c3c(c(O)c1C2=O)C[C@@](O)(/C(C)=N\O)C[C@@H]3OC1CC(N)C(O)C(C)O1 (some centres not stated) | 4.76 µM | 37.2 µM | 2.48 µM | 6.58 µM | 2.97 µM | 3.98 µM | 8.16 µM | 11.7 µM | 13.2 µM | 6.22 µM | – | – | – | – | – | – | – | – | – | –
9 | NCC(=O)CCC(=O)O | > 100 µM | > 100 µM | > 100 µM | > 100 µM | > 100 µM | > 100 µM | > 100 µM | > 100 µM | > 100 µM | > 100 µM | > 100 µM | > 100 µM | > 100 µM | > 100 µM | > 100 µM | > 100 µM | > 100 µM | > 100 µM | > 100 µM | > 100 µM
10 | COc1ccc(-c2nn(-c3cccc(NC(=O)Nc4cccc(C(F)(F)F)c4)c3)cc2-c2ccncc2)cc1Cl | 6.37 µM | > 100 µM | 5.23 µM | 7.84 µM | 4.84 µM | 22.6 µM | 11.5 µM | > 100 µM | 49.1 µM | > 100 µM | 1.33 µM | 4.1 µM | 2.37 µM | 1.65 µM | 1.31 µM | 2.57 µM | 1.76 µM | 3.58 µM | 2.24 µM | 1.83 µM
11 | C=C1CO[C@@H]2C[C@@H]1CCC1(C)OC1CC/C(C)=C/CC[C@@]2(C)O (some centres not stated) | 64.1 µM | > 100 µM | > 84.6 µM | > 79.8 µM | 2.72 µM | > 100 µM | 30.7 µM | > 100 µM | > 71 µM | 34.9 µM | 23.6 µM | > 100 µM | 43.2 µM | 27.1 µM | 1.29 µM | > 89.6 µM | 13.9 µM | > 100 µM | 24.5 µM | 17 µM
12 | CC(C)[C@@H](CS(=O)(=O)C(C)C)N1C(=O)[C@@](C)(CC(=O)O)C[C@H](c2cccc(Cl)c2)[C@H]1c1ccc(Cl)cc1 | 67 µM | 97 µM | 42.1 µM | 72.1 µM | > 40.7 µM | 61.2 µM | 15.1 µM | 73.2 µM | > 90.1 µM | 19.8 µM | 19.5 µM | 28.2 µM | 17.6 µM | 17.1 µM | 0.249 µM | 15.5 µM | 0.388 µM | 19.2 µM | 26.6 µM | 0.464 µM
13 | COc1ccc(C(=O)N/N=C/c2ccc(O)cc2O)cc1Nc1ccnc(C(F)(F)F)c1 | 15.7 µM | 58.6 µM | 30.6 µM | 15.3 µM | 0.452 µM | 4.98 µM | 12.7 µM | 18.8 µM | > 69.2 µM | > 53.9 µM | 3.3 µM | 0.994 µM | 9.23 µM | 1.01 µM | 0.148 µM | 0.298 µM | 3.14 µM | 0.725 µM | 3.6 µM | 5.11 µM
14 | Cc1[nH]nc(C(=O)Nc2n[nH]c3ccccc23)c1[N+](=O)[O-] | > 100 µM | > 100 µM | > 100 µM | > 100 µM | > 49.3 µM | > 100 µM | > 100 µM | > 100 µM | > 100 µM | > 100 µM | > 100 µM | > 100 µM | > 100 µM | > 68.7 µM | – | > 100 µM | > 85.1 µM | > 100 µM | > 100 µM | > 66.6 µM
15 | CCc1nc(N)nc(N)c1-c1ccc(Cl)c(N=NN(C)C)c1 | > 100 µM | > 100 µM | 62.1 µM | > 100 µM | 44.8 µM | > 75.5 µM | 40.5 µM | > 100 µM | > 91.4 µM | 99.5 µM | – | – | – | – | – | – | – | – | – | –
16 | O=C1C(=O)c2c(nc3ncccn23)-c2ccccc21 | 0.967 µM | 3.35 µM | 0.532 µM | 0.631 µM | – | 0.41 µM | 0.526 µM | 2.52 µM | 2.29 µM | 0.516 µM | 0.497 µM | 1.85 µM | 0.243 µM | 0.244 µM | 0.315 µM | 0.21 µM | 0.227 µM | 1.08 µM | 0.838 µM | 0.23 µM
17 | Clc1ccc(-c2cn(-c3ccccc3)c(-c3ccccc3)n2)c(Cl)c1 | 11.9 µM | 2.17 µM | > 50 µM | 6.02 µM | 4.01 µM | > 41.2 µM | 2.39 µM | > 35.7 µM | > 50 µM | – | 2.11 µM | 1.14 µM | > 50 µM | 1.27 µM | 1.05 µM | 4.86 µM | 1.09 µM | 5.15 µM | 1.79 µM | 1.77 µM
18 | COc1ccc2c(c1)C(=O)c1c-2n(CCCCl)c(=O)c2cc(N(C)C)ccc12 | 90.7 µM | > 100 µM | > 100 µM | > 100 µM | > 100 µM | > 100 µM | > 100 µM | > 100 µM | > 100 µM | > 100 µM | 25.5 µM | 30.9 µM | > 100 µM | 26.8 µM | 19.9 µM | > 100 µM | 73 µM | 36.2 µM | > 100 µM | > 100 µM
